Assays:
[1] = Pharmacokinetics of BI 1356, multiple oral doses once daily for 12 days in adult patients with type 2 diabetes; details: for fe0-24: fraction excreted in urine; for AUCT,ss / T1/2,ss / feT,ss / tmax,ss* / Cmax: steady state (Day 12); for tmax,ss*: median; for Cmax: read-out: Cmax,ss
[2] = Safety and tolerability in people with type 2 diabetes
[3] = Safety (adverse events, hypoglycaemia) in the 12-week add-on to metformin study; format: in vivo, human; details: 12 weeks
Excerpt: In total, 106 patients (43.1%) experienced adverse events (AEs) with similar incidences across all treatments. Most frequently reported episodes were nasopharyngitis (7.5%), diarrhoea (3.3%), and nausea (3.0%). […] Ten patients (3.7%) experienced serious AEs but none of these events were considered drug-related.
The addition of BI 1356 to MET in patients with T2DM inadequately controlled on MET alone achieved clinically relevant and statistically significant reductions in HbA1c.

[4] = 12-week randomized, double-blind add-on to metformin study in inadequately controlled adult type 2 diabetic patients: HbA1c and FPG; details: for placebo corrected mean reduction in HbA1c: 12 weeks
Method: Effects were compared to add-on of placebo (PBO) or of open label glimepiride (GLIM; 1 to 3 mg qd) in a 12-week randomized, double-blind study.
The primary endpoint was change from baseline in HbA1c, adjusted for prior antidiabetic medication.

clinical = details: human; for Cmax / Tmax / AUC(0-t): plasma; for CL renal: urine
[5] = Plasma concentration after single oral administration in the thorough QT study; format: in vivo, human; details: for maximum gMean concentration after single oral administration: healthy subjects
Method: Forty-four subjects were enrolled, 26 (59.1%) of whom were male. The mean age was 36.4 years (range 22 to 48 years). The maximum gMean concentration after single oral administration was 7.05 nM (28.5% gCV) for 5 mg BI 1356, and 267 nM (66.6% gCV) for 100 mg BI 1356.

[6] = 2 h postprandial blood glucose excursions, multiple oral dose study in adult patients with type 2 diabetes; format: in vivo, human; details: already on Day 1; in doses 2.5 mg
Excerpt: […]. […] […].

[7] = gMean, 1 mg once daily oral for 12 days
[8] = gMean, 2.5 mg once daily oral for 12 days
[9] = gMean, 5 mg once daily oral for 12 days
[10] = gMean, 10 mg once daily oral for 12 days

CC#CCn1c(N2CCC[C@@H](N)C2)nc2c1c(=O)n(Cc1nc(C)c3ccccc3n1)c(=O)n2C [BI 1356]
mean accumulation ratio RA,AUC ([1]; doses above 1 mg, once daily for 12 days): ≤ 1.4 | AUC0-24 [1, 7]: 0.0402 µM·h | Accumulation t1/2, [1, 7]: 23.9 h | Accumulation t1/2, [1, 8]: 12.5 h | Accumulation t1/2, [1, 9]: 11.4 h | Accumulation t1/2, [1, 10]: 8.59 h | fe0-24 [1, 8]: 0.139% | fe0-24 [1, 9]: 0.453% | fe0-24 [1, 10]: 0.919% | AUCT,ss ([1]; gMean, 1 mg once daily oral): 0.0817 µM·h | T1/2,ss ([1]; gMean, 1 mg once daily oral): 121 h | feT,ss ([1]; gMean, 1 mg once daily oral): 3.34% | AUCT,ss ([1]; gMean, 2.5 mg once daily oral): 0.117 µM·h | T1/2,ss ([1]; gMean, 2.5 mg once daily oral): 113 h | feT,ss ([1]; gMean, 2.5 mg once daily oral): 3.06% | AUCT,ss ([1]; gMean, 5 mg once daily oral): 0.158 µM·h | T1/2,ss ([1]; gMean, 5 mg once daily oral): 131 h | feT,ss ([1]; gMean, 5 mg once daily oral): 6.27% | AUCT,ss ([1]; gMean, 10 mg once daily oral): 0.19 µM·h | T1/2,ss ([1]; gMean, 10 mg once daily oral): 130 h | feT,ss ([1]; gMean, 10 mg once daily oral): 3.22% | tmax,ss* ([1]; 1 mg once daily oral): 1.48 h | tmax,ss* ([1]; 2.5 mg once daily oral): 1.42 h | tmax,ss* ([1]; 5 mg once daily oral): 1.53 h | tmax,ss* ([1]; 10 mg once daily oral): 1.34 h | Cmax ([1]; gMean, 1 mg once daily oral): 4.53 nM | Cmax ([1]; gMean, 2.5 mg once daily oral): 6.58 nM | Cmax ([1]; gMean, 5 mg once daily oral): 11.1 nM | Cmax ([1]; gMean, 10 mg once daily oral): 13.6 nM | safety and tolerability [2]: placebo-like safety and tolerability | drug-related hypoglycaemia ([3]; add-on to metformin): did not occur | incidence of AEs versus PBO ([3]; add-on to metformin): comparable | tolerability of combination treatment with MET ([3]; BI 1356 1, 5, and 10 mg and MET): well tolerated | reduction in FPG from baseline to Week 12 ([4]; 1 mg qd add-on to metformin): -19 mg/dL | placebo corrected mean reduction in HbA1c ([4]; 1 mg qd add-on to metformin, n=65): −0.39% | reduction in FPG from baseline to Week 12 ([4]; 5 mg qd add-on to metformin): -35 mg/dL | placebo corrected mean reduction in HbA1c ([4]; 5 mg qd add-on to metformin, n=66): −0.75% | reduction in FPG from baseline to Week 12 ([4]; 10 mg qd add-on to metformin): -30 mg/dL | placebo corrected mean reduction in HbA1c ([4]; 10 mg qd add-on to metformin, n=66): −0.73% | excretion form and pathway (in vivo): primarily excreted unchanged via the bile | excretion via the kidney (therapeutic oral dose levels): < 7 % of the administered oral dose | main excretion organ (therapeutic oral dose levels): mainly excreted via the liver | Cmax (clinical; po, 1 mg): 3.13 nM | Tmax (clinical; po, 1 mg): 1.5 h | AUC(0-t) (clinical; po, 2.5 mg): 0.0853 µM·h | Cmax (clinical; po, 2.5 mg): 5.25 nM | Tmax (clinical; po, 2.5 mg): 2 h | AUC(0-t) (clinical; po, 5 mg): 0.118 µM·h | Cmax (clinical; po, 5 mg): 8.32 nM | Tmax (clinical; po, 5 mg): 1.75 h | AUC(0-t) (clinical; po, 10 mg): 0.161 µM·h | Cmax (clinical; po, 10 mg): 9.69 nM | Tmax (clinical; po, 10 mg): 2 h | CL renal (clinical; oral, 5 mg): ~70 mL/min | CL renal (clinical; po): 14 to 70 mL/min | maximum gMean concentration after single oral administration ([5]; 5 mg single oral dose): 7.05 nM | maximum gMean concentration after single oral administration ([5]; 100 mg single oral dose): 267 nM | maximum plasma concentration of supratherapeutic dose (100 mg) relative to therapeutic dose of 5 mg ([5]; single dose): about 38 fold | decrease in 2 h postprandial blood glucose excursions [6]: > 80%

CCC1=C(C)CN(C(=O)NCCc2ccc(S(=O)(=O)NC(=O)N[C@H]3CC[C@H](C)CC3)cc2)C1=O [GLIM, glimepiride, reference compound]
drug-related hypoglycaemia ([3]; add-on to metformin): 3 patients | mean PBO corrected reduction in HbA1c at Week 12 ([4]; open label, 1 to 3 mg qd add-on to metformin, n=64): −0.90%

— US20120122776A1, “DPP-IV INHIBITORS FOR TREATMENT OF DIABETES IN PEDIATRIC PATIENTS” (BOEHRINGER INGELHEIM INTERNATIONAL GMBH, priority 2009, published 2012)
